Columns and labels:
Assay in all cases: biochemical
Details in all cases: read-out: %Ctrl @ 1000nM
[1] = molecular target: CLK2 (Homo sapiens, UniProt P49760)
[2] = molecular target: JAK1(JH1domain-catalytic) (Homo sapiens, UniProt P23458)
[3] = molecular target: ACVR2A (Homo sapiens, UniProt P27037)
[4] = molecular target: ABL1(T315I)-phosphorylated (Homo sapiens, UniProt P00519, T315I)
[5] = molecular target: IRAK4 (Homo sapiens, UniProt Q9NWZ3)
[6] = molecular target: AURKA (Homo sapiens, UniProt O14965)
AURKA, sequence (O14965 whole entry): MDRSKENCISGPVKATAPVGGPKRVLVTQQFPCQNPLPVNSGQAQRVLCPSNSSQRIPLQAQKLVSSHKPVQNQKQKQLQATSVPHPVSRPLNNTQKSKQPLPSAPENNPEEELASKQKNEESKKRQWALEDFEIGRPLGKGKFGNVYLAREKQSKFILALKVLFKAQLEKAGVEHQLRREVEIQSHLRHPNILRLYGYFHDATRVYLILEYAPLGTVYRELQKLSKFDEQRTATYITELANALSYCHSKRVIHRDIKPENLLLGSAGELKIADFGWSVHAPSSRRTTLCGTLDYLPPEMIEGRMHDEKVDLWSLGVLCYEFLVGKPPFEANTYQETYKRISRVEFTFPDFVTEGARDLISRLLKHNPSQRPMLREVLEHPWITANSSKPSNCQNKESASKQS

[7] = molecular target: T1, MST2 (Homo sapiens, UniProt Q13188)
T1 construct: gene STK3

[8] = molecular target: T2, MLCK (Homo sapiens, UniProt Q32MK0)
T2 construct: gene MYLK3
T2 sequence (Q32MK0 whole entry): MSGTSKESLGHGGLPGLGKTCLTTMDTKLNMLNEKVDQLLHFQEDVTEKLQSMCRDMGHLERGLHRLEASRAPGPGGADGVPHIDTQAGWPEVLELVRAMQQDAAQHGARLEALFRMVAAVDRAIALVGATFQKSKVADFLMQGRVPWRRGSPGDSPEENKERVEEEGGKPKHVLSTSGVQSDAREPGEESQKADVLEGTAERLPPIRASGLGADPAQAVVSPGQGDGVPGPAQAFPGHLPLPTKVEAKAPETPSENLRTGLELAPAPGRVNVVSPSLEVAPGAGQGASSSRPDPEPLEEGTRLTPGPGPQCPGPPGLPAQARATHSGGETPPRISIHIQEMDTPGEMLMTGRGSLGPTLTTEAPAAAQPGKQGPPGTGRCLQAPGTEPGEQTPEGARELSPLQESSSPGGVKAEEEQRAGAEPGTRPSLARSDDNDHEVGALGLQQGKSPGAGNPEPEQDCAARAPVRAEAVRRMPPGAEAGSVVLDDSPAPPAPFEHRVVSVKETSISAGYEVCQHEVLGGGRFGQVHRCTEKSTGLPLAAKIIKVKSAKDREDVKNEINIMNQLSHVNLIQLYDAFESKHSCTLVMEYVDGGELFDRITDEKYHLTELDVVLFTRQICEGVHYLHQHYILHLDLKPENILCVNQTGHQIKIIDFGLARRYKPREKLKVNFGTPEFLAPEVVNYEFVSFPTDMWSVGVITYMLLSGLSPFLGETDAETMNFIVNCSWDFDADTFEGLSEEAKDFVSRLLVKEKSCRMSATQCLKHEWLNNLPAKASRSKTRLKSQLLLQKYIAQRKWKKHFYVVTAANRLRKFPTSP

[9] = molecular target: EPHA3 (Homo sapiens, UniProt P29320)
[10] = molecular target: T3, MKK7 (Homo sapiens, UniProt O14733)
T3 construct: gene MAP2K7
T3 sequence (O14733 whole entry): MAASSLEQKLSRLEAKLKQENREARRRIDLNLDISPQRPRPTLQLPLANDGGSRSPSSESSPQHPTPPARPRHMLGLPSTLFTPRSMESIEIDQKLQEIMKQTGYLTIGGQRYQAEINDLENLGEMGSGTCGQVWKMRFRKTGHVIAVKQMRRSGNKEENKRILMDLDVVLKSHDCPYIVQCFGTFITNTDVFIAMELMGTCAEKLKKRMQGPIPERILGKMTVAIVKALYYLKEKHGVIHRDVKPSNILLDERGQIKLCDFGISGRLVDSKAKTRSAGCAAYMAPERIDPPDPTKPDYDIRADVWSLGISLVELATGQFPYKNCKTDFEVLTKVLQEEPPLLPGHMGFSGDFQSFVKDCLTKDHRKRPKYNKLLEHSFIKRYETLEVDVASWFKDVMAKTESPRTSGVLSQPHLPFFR

[11] = molecular target: CDKL3 (Homo sapiens, UniProt Q8IVW4)
CDKL3, sequence (Q8IVW4 whole entry): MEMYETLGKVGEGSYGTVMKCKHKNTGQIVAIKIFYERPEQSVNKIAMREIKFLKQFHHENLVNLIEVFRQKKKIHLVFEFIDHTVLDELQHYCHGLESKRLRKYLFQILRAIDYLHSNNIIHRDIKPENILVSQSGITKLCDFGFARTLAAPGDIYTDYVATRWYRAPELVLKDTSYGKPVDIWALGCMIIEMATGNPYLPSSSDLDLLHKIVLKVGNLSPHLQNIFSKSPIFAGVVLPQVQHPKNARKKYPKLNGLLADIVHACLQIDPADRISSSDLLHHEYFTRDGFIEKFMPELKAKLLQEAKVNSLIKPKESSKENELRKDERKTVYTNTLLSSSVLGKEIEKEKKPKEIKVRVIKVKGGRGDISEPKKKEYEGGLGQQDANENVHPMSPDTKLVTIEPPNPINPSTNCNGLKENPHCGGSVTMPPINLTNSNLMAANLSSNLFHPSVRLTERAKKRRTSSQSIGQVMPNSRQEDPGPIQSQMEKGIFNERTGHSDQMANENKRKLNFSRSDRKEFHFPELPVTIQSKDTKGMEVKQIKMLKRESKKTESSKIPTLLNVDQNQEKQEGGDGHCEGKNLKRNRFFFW

[12] = molecular target: JAK1(JH2domain-pseudokinase) (Homo sapiens, UniProt P23458)
[13] = molecular target: SRC (Homo sapiens, UniProt P12931)
[14] = molecular target: PAK6 (Homo sapiens, UniProt Q9NQU5)
[15] = molecular target: ERN1 (Homo sapiens, UniProt O75460)
[16] = molecular target: PDGFRA (Homo sapiens, UniProt P16234)
[17] = molecular target: CSNK1G3 (Homo sapiens, UniProt Q9Y6M4)
[18] = molecular target: HIPK4 (Homo sapiens, UniProt Q8NE63)
[19] = molecular target: KIT(V559D) (Homo sapiens, UniProt P10721, V559D)
[20] = molecular target: BLK (Homo sapiens, UniProt P51451)
BLK, sequence (P51451 whole entry): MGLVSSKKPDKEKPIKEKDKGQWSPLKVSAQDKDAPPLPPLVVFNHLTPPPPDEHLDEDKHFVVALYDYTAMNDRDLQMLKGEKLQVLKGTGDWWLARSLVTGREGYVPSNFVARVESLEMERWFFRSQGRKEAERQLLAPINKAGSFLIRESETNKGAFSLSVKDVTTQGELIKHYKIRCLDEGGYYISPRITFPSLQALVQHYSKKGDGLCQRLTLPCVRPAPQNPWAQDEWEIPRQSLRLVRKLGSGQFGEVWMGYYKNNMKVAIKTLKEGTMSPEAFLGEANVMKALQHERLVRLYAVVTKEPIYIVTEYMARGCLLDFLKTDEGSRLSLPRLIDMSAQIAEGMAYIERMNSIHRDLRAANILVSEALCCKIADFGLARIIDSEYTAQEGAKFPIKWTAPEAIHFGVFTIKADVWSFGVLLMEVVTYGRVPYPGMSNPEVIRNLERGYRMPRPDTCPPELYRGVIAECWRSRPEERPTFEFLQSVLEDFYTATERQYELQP

[21] = molecular target: EGFR(L747-S752del, P753S) (Homo sapiens, UniProt P00533, DEL747-752/P753S)
[22] = molecular target: PAK1 (Homo sapiens, UniProt Q13153)
[23] = molecular target: PIK3CA(H1047Y) (Homo sapiens, UniProt P42336, H1047Y)
[24] = molecular target: SGK3 (Homo sapiens, UniProt Q96BR1)
SGK3, sequence (Q96BR1 whole entry): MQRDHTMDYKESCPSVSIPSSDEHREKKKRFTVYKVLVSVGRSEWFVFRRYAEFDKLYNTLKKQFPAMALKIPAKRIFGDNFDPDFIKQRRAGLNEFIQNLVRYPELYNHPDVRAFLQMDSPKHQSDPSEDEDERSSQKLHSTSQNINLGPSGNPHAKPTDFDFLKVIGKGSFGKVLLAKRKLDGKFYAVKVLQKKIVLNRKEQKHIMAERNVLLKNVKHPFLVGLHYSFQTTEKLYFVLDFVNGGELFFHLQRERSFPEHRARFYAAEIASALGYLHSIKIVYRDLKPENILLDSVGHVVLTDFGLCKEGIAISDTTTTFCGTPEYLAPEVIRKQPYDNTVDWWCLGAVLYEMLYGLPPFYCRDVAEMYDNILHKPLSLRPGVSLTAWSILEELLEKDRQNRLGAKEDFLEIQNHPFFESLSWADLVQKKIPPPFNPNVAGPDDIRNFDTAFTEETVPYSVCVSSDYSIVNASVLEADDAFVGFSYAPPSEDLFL

[25] = molecular target: T4, PKAC-alpha (Homo sapiens, UniProt P17612)
T4 construct: gene PRKACA

[26] = molecular target: T5, DCAMKL3 (Homo sapiens, UniProt Q9C098)
T5 construct: gene DCLK3

[27] = molecular target: EGFR(E746-A750del) (Homo sapiens, UniProt P00533, DEL746-750)
[28] = molecular target: MYO3B (Homo sapiens, UniProt Q8WXR4)
[29] = molecular target: MAP3K2 (Homo sapiens, UniProt Q9Y2U5)
MAP3K2, sequence (Q9Y2U5 whole entry): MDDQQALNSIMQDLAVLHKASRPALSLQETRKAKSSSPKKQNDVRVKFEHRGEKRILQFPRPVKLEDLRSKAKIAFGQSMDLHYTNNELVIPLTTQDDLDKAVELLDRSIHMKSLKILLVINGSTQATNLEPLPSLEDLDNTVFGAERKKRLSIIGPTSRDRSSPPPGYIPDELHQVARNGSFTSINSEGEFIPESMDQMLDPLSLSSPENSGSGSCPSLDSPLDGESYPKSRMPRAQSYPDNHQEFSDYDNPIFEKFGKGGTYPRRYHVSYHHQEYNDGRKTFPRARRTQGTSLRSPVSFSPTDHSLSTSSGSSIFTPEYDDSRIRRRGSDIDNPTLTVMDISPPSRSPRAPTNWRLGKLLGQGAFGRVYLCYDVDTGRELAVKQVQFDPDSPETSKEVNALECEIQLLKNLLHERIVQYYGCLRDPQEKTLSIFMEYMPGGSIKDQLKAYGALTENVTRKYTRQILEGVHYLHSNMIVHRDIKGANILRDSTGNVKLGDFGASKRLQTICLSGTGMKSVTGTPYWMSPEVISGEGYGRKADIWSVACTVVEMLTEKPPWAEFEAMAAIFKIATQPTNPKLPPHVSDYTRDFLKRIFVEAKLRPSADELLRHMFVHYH

[30] = molecular target: DMPK (Homo sapiens, UniProt Q09013)
[31] = molecular target: CAMK2B (Homo sapiens, UniProt Q13554)
[32] = molecular target: RIOK1 (Homo sapiens, UniProt Q9BRS2)
RIOK1, sequence (Q9BRS2 whole entry): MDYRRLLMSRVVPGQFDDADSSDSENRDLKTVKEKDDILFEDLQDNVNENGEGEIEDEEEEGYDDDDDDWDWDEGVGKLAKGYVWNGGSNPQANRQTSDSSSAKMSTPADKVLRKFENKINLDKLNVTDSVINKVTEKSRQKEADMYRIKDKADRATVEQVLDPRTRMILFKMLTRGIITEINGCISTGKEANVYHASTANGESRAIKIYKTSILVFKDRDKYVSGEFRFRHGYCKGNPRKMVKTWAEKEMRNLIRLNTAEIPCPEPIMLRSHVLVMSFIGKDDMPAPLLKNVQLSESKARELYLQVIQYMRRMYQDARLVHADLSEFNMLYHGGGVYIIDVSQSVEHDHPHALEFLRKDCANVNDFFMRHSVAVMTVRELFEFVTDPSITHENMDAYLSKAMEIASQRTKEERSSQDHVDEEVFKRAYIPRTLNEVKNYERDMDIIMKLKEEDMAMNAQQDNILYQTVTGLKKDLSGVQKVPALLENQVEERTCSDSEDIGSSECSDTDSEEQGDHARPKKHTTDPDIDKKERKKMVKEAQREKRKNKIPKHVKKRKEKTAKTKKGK

[33] = molecular target: FLT3(K663Q) (Homo sapiens, UniProt P36888, K663Q)
[34] = molecular target: TESK1 (Homo sapiens, UniProt Q15569)
[35] = molecular target: SGK2 (Homo sapiens, UniProt Q9HBY8)

CLK2, sequence (P49760 whole entry): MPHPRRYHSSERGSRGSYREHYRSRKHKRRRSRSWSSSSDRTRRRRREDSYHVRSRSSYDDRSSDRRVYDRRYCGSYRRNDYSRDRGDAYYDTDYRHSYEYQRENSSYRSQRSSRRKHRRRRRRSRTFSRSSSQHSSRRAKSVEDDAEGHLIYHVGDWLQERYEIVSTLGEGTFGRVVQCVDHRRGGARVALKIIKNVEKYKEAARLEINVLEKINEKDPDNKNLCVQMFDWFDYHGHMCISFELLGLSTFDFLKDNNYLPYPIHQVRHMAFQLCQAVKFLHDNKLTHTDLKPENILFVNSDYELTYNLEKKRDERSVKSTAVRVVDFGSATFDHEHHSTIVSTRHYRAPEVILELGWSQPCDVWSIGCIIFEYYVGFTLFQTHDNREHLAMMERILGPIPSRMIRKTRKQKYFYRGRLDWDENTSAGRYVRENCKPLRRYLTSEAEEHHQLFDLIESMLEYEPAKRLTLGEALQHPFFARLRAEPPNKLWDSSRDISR

remaining activity at 1 µM [1]: 86%
remaining activity at 1 µM [2]: 100%
remaining activity at 1 µM [3]: 98%
remaining activity at 1 µM [4]: 97%
remaining activity at 1 µM [5]: 100%
remaining activity at 1 µM [6]: 96%
remaining activity at 1 µM [7]: 100%
remaining activity at 1 µM [8]: 92%
remaining activity at 1 µM [9]: 55%
remaining activity at 1 µM [10]: 100%
remaining activity at 1 µM [11]: 100%
remaining activity at 1 µM [12]: 100%
remaining activity at 1 µM [13]: 94%
remaining activity at 1 µM [14]: 85%
remaining activity at 1 µM [15]: 100%
remaining activity at 1 µM [16]: 100%
remaining activity at 1 µM [17]: 72%
remaining activity at 1 µM [18]: 87%
remaining activity at 1 µM [19]: 80%
remaining activity at 1 µM [20]: 68%
remaining activity at 1 µM [21]: 83%
remaining activity at 1 µM [22]: 84%
remaining activity at 1 µM [23]: 45%
remaining activity at 1 µM [24]: 100%
remaining activity at 1 µM [25]: 87%
remaining activity at 1 µM [26]: 86%
remaining activity at 1 µM [27]: 94%
remaining activity at 1 µM [28]: 85%
remaining activity at 1 µM [29]: 92%
remaining activity at 1 µM [30]: 100%
remaining activity at 1 µM [31]: 95%
remaining activity at 1 µM [32]: 100%
remaining activity at 1 µM [33]: 62%
remaining activity at 1 µM [34]: 98%
remaining activity at 1 µM [35]: 100%
Structure (SMILES): Cc1cn(-c2cc(NC(=O)c3ccc4c(c3)CN(c3cncnc3)C[C@@H]4C)cc(C(F)(F)F)c2)cn1 [Compound 6j]
